Results taken from patent US20230235279A1, “AMNIOTIC-LIKE EPITHELIAL CELL GENERATION” (THE BABRAHAM INSTITUTE, priority 2020, published 2023).

How the values were obtained:
Assay type in all cases: cell-based, human
naïve hPSC = test: hALEC differentiation in AP after capacitation in different conditions; details: 3 days capacitation in the named condition, then AP; for hALEC differentiation after capacitation condition: morphology and markers
Procedure: (§1) FIGS. 3 (A to I). Signalling requirement for hALEC differentiation: FIG. 3(A) depicts experimental outline; naïve hPSC were capacitated in different conditions for 3 days (2uM XAV939 in N2B27 basal medium (“XAV939”), N2B27 basal medium only (“N2B27”), 1 uM A8301 in N2B27 basal medium (“A8301”), or medium E8 for culturing primed hPSCs (“E8”)), and then differentiated to hALEC in AP media. FIG. 3(B) is whole-well view of cells after hALEC induction stained with fluorescently labelled phalloidin. […] FIGS. 3(F) and (G) show images of cells stained with fluorescently labelled phalloidin and qRT-PCR results, respectively, of hALEC differentiated in the presence of alternative MAPK inhibitors (1 uM PD0325901, or 5 nM, 10 nM or 30 nM Trametinib). FIGS. 3(H) and (I) show images of cells stained with fluorescently labelled phalloidin and qRT-PCR results, respectively, for hALEC differentiated in the presence of alternative TGFb pathway inhibitors (1 uM A8301; 10 or 20 uM SB431542; 1 uM or 5 uM LY2109761; 5 uM or 10uM or 20 uM LY364947).
WNT inhibition is beneficial but not essential for the formative transition of hPSC, which is rather guided by their autocrine signalling (Rostovskaya et al. Development 2019). We induced formative transition by the range of conditions: (1) WNT inhibitor XAV939 in N2B27 basal medium; (2) simple withdrawal of the factors (PD0325901, Go6983, XAV939, LIF) for naïve hPSC maintenance from the medium and culturing in basal N2B27 conditions; (3) TGFb inhibitor A8301 in N2B27 basal medium; (4) E8 medium containing TGFb and FGF2 for culturing primed hPSC (Chen et al. Nat Methods 2011); all for 3 days, and then applied AP conditions for differentiation (FIG. 3A). […] Therefore, the ability to form hALEC capable of self-assembly into spheroids, is an intrinsic property of hPSC that is established during capacitation, rather than a property that is acquired in response to exogenous WNT inhibition.

[1] = tested on: hPSC after 3-5 days of the capacitation; test: Signalling requirement for hALEC formation (single, joint and alternative MAPK, TGFb, BMP inhibitors); details: for efficient formation of 3D bubble-like epithelial structures and upregulation of amnion markers: A8301 only, PD03 only or both (AP); for induction of hALEC by alternative MAPK or TGFb pathway inhibitor: Trametinib 5, 10 or 30 nM, SB431542 10 or 20 uM, LY2109761 1 or 5 uM, LY364947 5, 10 or 20 uM
Procedure: as §1
We next assessed whether the joint inhibition of the TGFb/Activin/Nodal and MAPK pathways is required for the formation of hALEC. We tested this using hPSC after 3-5 days of the capacitation in independent experiments by supplementing their media with either A8301 only (“A”), PD03 only (“P”), neither of the inhibitors (“none”), or both (“AP”).
Therefore, hALEC differentiation is induced specifically by inhibition of MAPK and TGFb pathways and not by other effects of PD0325901 and A8301.
The formation of cells expressing a subset of amnion markers has been previously reported after treating conventional primed hPSC with the growth factor BMP4 (Shao et al. Nat Mater 2017; Shao et al. Nat Commun 2017; Zheng et al. Nature 2019). However, this finding is at odds with the timing of events that occur during embryo development. In particular, primed hPSC closely resemble late post-implantation epiblast cells just prior to the onset of gastrulation (Nakamura et al. Nature 2016), a developmental stage that occurs in humans at around 11-12dpf (Carnegie stage, CS, 5c), which is several days after the emergence of the amnion in the implanting embryo at 7dpf (CS 5a) (The Virtual Human Embryo Atlas). Therefore, BMP-dependent route of differentiation reported in the aforementioned works can’t explain the mechanism of formation of amnion and amniotic cavity in primate embryos. Nevertheless, we tested whether BMP signalling was required for hALEC differentiation by adding a selective BMP receptor (ALK-2, -3, -6) inhibitor called LDN193189 to the AP-containing media (a combination referred to as “DAP” hereafter).

[2] = tested on: hPSC at different stages of capacitation; test: Competence window for hALEC differentiation during capacitation (AP or DAP); details: hPSC capacitated 8 days, AP medium plus BMP inhibitor
Text: FIGS. 4 (A to G). A competence window for hALEC differentiation during the formative transition: FIG. 4(A) depicts the experimental outline. hPSC (HNES1 line) were capacitated in XAV939 and analysed for their ability to form hALEC each day of capacitation, by treatment with AP of DAP for 4 days. […] FIG. 4(D) is a qRT-PCR for markers in hALEC differentiated using AP medium after various length of capacitation. FIG. 4(E) depicts the immunofluorescence for markers (OCT4, CDX2 and E-cadherin) during the time course of hALEC differentiation using naïve and partially capacitated HNES1. […] FIG. 4(G) is the flow cytometry analysis.
To identify a window during the progression from naïve to primed pluripotency where hPSC have the competence to form amnion, we systematically tested the ability of hPSC at different stages of capacitation to respond to hALEC-inducing cues (FIG. 4A). In these experiments, hALEC differentiation was induced using two alternative media compositions – AP and DAP – in order to assess whether the requirement for BMP pathway activity is altered this window of competence. […] The efficiency of hALEC formation was evaluated visually by their efficiency to form 3D epithelial spheres (FIGS. 4B and 4C), and markers expression (FIG. 4D). […]

## Cc1cccc(-c2nn(C(=S)Nc3ccccc3)cc2-c2ccnc3ccccc23)n1 [A8301]
naïve hPSC
  efficiency of hALEC differentiation after capacitation condition: consistently high
  hALEC differentiation after capacitation condition: successfully differentiated to hALEC
[1]
  efficient formation of 3D bubble-like epithelial structures and upregulation of amnion markers: Only the cells treated by both inhibitors were able to efficiently form

## COc1cc(-c2cc(-c3cccc(O)c3)cnc2N)cc(OC)c1OC [K02288]
[2]
  extension of the window of competence by alternative BMP inhibitor: extension of the window of competence was observed

## c1ccc2c(-c3cnn4cc(-c5ccc(N6CCNCC6)cc5)cnc34)ccnc2c1 [LDN193189]
[1]; added to AP-containing media (DAP)
  effect of blocking BMP signalling on hALEC differentiation: did not interfere with hALEC differentiation

## c1ccc(-c2[nH]ncc2-c2ccnc3ccccc23)nc1 [LY364947]
[1]
  induction of hALEC by alternative MAPK or TGFb pathway inhibitor: successful induction of hALEC

## c1ccc(-c2nn3c(c2-c2ccnc4cc(OCCN5CCOCC5)ccc24)CCC3)nc1 [LY2109761]
[1]
  induction of hALEC by alternative MAPK or TGFb pathway inhibitor: successful induction of hALEC

## O=C(NOC[C@H](O)CO)c1ccc(F)c(F)c1Nc1ccc(I)cc1F [PD03]
[1]
  efficient formation of 3D bubble-like epithelial structures and upregulation of amnion markers: Only the cells treated by both inhibitors were able to efficiently form

## NC(=O)c1ccc(-c2nc(-c3ccc4c(c3)OCO4)c(-c3ccccn3)[nH]2)cc1 [SB431542]
[1]
  induction of hALEC by alternative MAPK or TGFb pathway inhibitor: successful induction of hALEC

## Oc1nc(-c2ccc(C(F)(F)F)cc2)nc2c1CSCC2 [XAV939]
naïve hPSC
  efficiency of hALEC differentiation after capacitation condition: consistently high
  hALEC differentiation after capacitation condition: successfully differentiated to hALEC
